From PubChem BioAssay (NCI)
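Five concentrations, 48 hours, 96-well plates. Definition used: TGI = concentration required for complete inhibition of growth.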

These molecules were tested on IGROV1 ovarian (assay: NCI anticancer screen, dose series, 48 h).
For `COc1cccc(C(=O)Oc2ccc(OS(=O)(=O)c3ccc(C)cc3)cc2)c1C#N`, the TGI was over 100 µM. Work on `CC1(C)/C(=N\NC(N)=O)C2CCC1C2` (configuration not stated) yielded a TGI of over 100 µM. In the case of `Cc1ccc(C2SCC(=O)N2c2ccc(-n3c(-c4ccccc4)nc4ccccc4c3=O)cc2)cc1` (configuration not stated), the TGI is reported as 90.7 µM. In the case of `CCCNC(=O)NNC(=O)c1c[nH]c2nc(C)ccc2c1=O`, the TGI is reported as over 100 µM. With `C=CCCON(C(=O)OC(C)(C)C)C(C)(C)C` the TGI was over 100 µM. Work on `CCOC(=O)Nc1[nH]cc(-c2ccccc2)c1C#N` yielded a TGI of over 100 µM. `[N-]=[N+]=NC1(Cc2ccccc2)C(=O)c2cccc3c2N(CCC3)C1=O` (configuration not stated) gave a TGI of over 100 µM. For `NC(N)=NS(=O)(=O)c1ccc(NNc2c3ccccc3nc3c(C(=O)Nc4ccc(S(=O)(=O)Nc5ncccn5)cc4)cccc23)cc1`, the TGI was 44.6 µM. With `O=c1oc2ccccc2cc1-c1cc2ccccn2c1` the TGI was over 100 µM. `COC(=O)c1c(O)ccc2c1c1c(n2Cc2cc(OC)cc(OC)c2)C(=O)c2ccccc2C1` gave a TGI of over 100 µM. Molecule `COC[C@@H](N=CC(C)(C)C)C(C)C` has a TGI of over 100 µM. `NC(N)=NCCN1CC2CCC(CC2)C1` gave a TGI of over 100 µM. Work on `O=C1COc2cccnc2N1CCCCO` yielded a TGI of over 100 µM. With `O=[N+]([O-])c1cccc(C2=NN(c3ccccc3)C[N+](c3ccc(Br)cc3)=N2)c1` the TGI was over 100 µM. With `O=C(O)CCCc1nc2c(n1Cc1ccccc1)C(=O)c1ccccc1C2=O` the TGI was over 100 µM. For `CCOC(=O)NC(Nc1ccc(C)cc1)(C(F)(F)F)C(F)(F)F`, the TGI was over 100 µM. In the case of `[N-]=[N+]=Nc1c([N+](=O)[O-])c(=O)n(-c2ccccc2)c2ccccc12`, the TGI is reported as 88.4 µM. `O=[N+]([O-])c1ccc2[nH]c(=S)[nH]c(=S)c2c1` gave a TGI of over 100 µM.

These molecules were tested on CAKI-1 renal (assay: NCI anticancer screen, dose series, 48 h).
`O=[N+]([O-])C[C@@]12O[C@]3(O)C4C5CC(C6C5C3C61)C42` (some centres not stated) showed a TGI of over 100 µM. `O=C1C2SC34c5c2c2ccccc2n5CCC3CCCN14` (configuration not stated) was tested, and the TGI was over 100 µM. For `O=C(/C=C/c1ccccc1)Oc1cccc(O)c1`, the TGI was over 100 µM. For `Cc1c2n(c(=O)[nH]c1=O)C1OC(CO)C(O2)C1O` (configuration not stated), the TGI was over 100 µM. `COc1cccc(C(=O)Oc2ccc(OS(=O)(=O)c3ccc(C)cc3)cc2)c1C#N` showed a TGI of over 100 µM. With `CC1(C)/C(=N\NC(N)=O)C2CCC1C2` (configuration not stated) the TGI was over 100 µM. Molecule `Cc1ccc(C2SCC(=O)N2c2ccc(-n3c(-c4ccccc4)nc4ccccc4c3=O)cc2)cc1` (configuration not stated) has a TGI of over 100 µM. With `CC1(C)[C@@H](Cn2ccc(=O)[nH]c2=O)CC[C@@]1(C)CO` the TGI was over 100 µM. In the case of `Cn1c(=O)c2c(ncn2CCNC(CO)C(O)c2ccc([N+](=O)[O-])cc2)n(C)c1=O` (configuration not stated), the TGI is reported as over 100 µM. In the case of `CCCNC(=O)NNC(=O)c1c[nH]c2nc(C)ccc2c1=O`, the TGI is reported as over 100 µM. `C=CCCON(C(=O)OC(C)(C)C)C(C)(C)C` showed a TGI of over 100 µM. Work on `[N-]=[N+]=NC1(Cc2ccccc2)C(=O)c2cccc3c2N(CCC3)C1=O` (configuration not stated) yielded a TGI of over 100 µM. For `NC(N)=NS(=O)(=O)c1ccc(NNc2c3ccccc3nc3c(C(=O)Nc4ccc(S(=O)(=O)Nc5ncccn5)cc4)cccc23)cc1`, the TGI was over 100 µM. `O=c1oc2ccccc2cc1-c1cc2ccccn2c1` was tested, and the TGI was over 100 µM. Work on `COC(=O)c1c(O)ccc2c1c1c(n2Cc2cc(OC)cc(OC)c2)C(=O)c2ccccc2C1` yielded a TGI of 63.7 µM. In the case of `COC[C@@H](N=CC(C)(C)C)C(C)C`, the TGI is reported as over 100 µM. `NC(N)=NCCN1CC2CCC(CC2)C1` was tested, and the TGI was over 100 µM. With `O=C1COc2cccnc2N1CCCCO` the TGI was over 100 µM. In the case of `O=[N+]([O-])c1cccc(C2=NN(c3ccccc3)C[N+](c3ccc(Br)cc3)=N2)c1`, the TGI is reported as over 100 µM. `O=C(O)CCCc1nc2c(n1Cc1ccccc1)C(=O)c1ccccc1C2=O` showed a TGI of over 100 µM. In the case of `[N-]=[N+]=Nc1c([N+](=O)[O-])c(=O)n(-c2ccccc2)c2ccccc12`, the TGI is reported as 56.3 µM. `O=[N+]([O-])c1ccc2[nH]c(=S)[nH]c(=S)c2c1` was tested, and the TGI was over 100 µM.

Each molecule was assayed on KM12 colon (assay: NCI anticancer screen, dose series, 48 h).
Molecule `O=[N+]([O-])C[C@@]12O[C@]3(O)C4C5CC(C6C5C3C61)C42` (some centres not stated) has a TGI of over 100 µM. `O=C1C2SC34c5c2c2ccccc2n5CCC3CCCN14` (configuration not stated) was tested, and the TGI was over 100 µM. For `CCCC(=O)NC(NC1CCCCC1)(C(=O)OCC)C(F)(F)F` (configuration not stated), the TGI was over 100 µM. In the case of `O=C(/C=C/c1ccccc1)Oc1cccc(O)c1`, the TGI is reported as 46.3 µM. `Cc1c2n(c(=O)[nH]c1=O)C1OC(CO)C(O2)C1O` (configuration not stated) gave a TGI of over 100 µM. In the case of `COc1cccc(C(=O)Oc2ccc(OS(=O)(=O)c3ccc(C)cc3)cc2)c1C#N`, the TGI is reported as over 100 µM. Molecule `CC1(C)/C(=N\NC(N)=O)C2CCC1C2` (configuration not stated) has a TGI of over 100 µM. `Cc1ccc(C2SCC(=O)N2c2ccc(-n3c(-c4ccccc4)nc4ccccc4c3=O)cc2)cc1` (configuration not stated) gave a TGI of over 100 µM. `CC1(C)[C@@H](Cn2ccc(=O)[nH]c2=O)CC[C@@]1(C)CO` showed a TGI of over 100 µM. For `CC(C)C1=CC23CCC4C(C)(C(=O)O)CCCC4(C)C2CC1C1C(=O)N(c2ccc(Cc4ccc(N5C(=O)C6C7CC8C9(C)CCCC(C)(C(=O)O)C9CCC8(C=C7C(C)C)C6C5=O)cc4)cc2)C(=O)C13` (configuration not stated), the TGI was 20.2 µM. Work on `Cn1c(=O)c2c(ncn2CCNC(CO)C(O)c2ccc([N+](=O)[O-])cc2)n(C)c1=O` (configuration not stated) yielded a TGI of over 100 µM. `CCCNC(=O)NNC(=O)c1c[nH]c2nc(C)ccc2c1=O` showed a TGI of over 100 µM. Work on `C=CCCON(C(=O)OC(C)(C)C)C(C)(C)C` yielded a TGI of over 100 µM. Molecule `CCOC(=O)Nc1[nH]cc(-c2ccccc2)c1C#N` has a TGI of over 100 µM. With `[N-]=[N+]=NC1(Cc2ccccc2)C(=O)c2cccc3c2N(CCC3)C1=O` (configuration not stated) the TGI was over 100 µM. `NC(N)=NS(=O)(=O)c1ccc(NNc2c3ccccc3nc3c(C(=O)Nc4ccc(S(=O)(=O)Nc5ncccn5)cc4)cccc23)cc1` showed a TGI of over 100 µM. Work on `O=c1oc2ccccc2cc1-c1cc2ccccn2c1` yielded a TGI of over 100 µM.
